Measured values from paper PMC9589286, “Ruthenium polypyridine complexes with triphenylamine groups as antibacterial agents against Staphylococcus aureus with membrane-disruptive mechanism” (Frontiers in Chemistry, 2022).
Values after ≈ are worked out from the molar mass of the structure shown.

What was measured:
[1] = Partition coefficient, shake flask 1-octanol/PBS; assay type: physicochemical
Method: The partition coefficients of all complexes were determined by standard shake flask method in 1-octanol and buffer liquid system ([Yang et al., 2021]). In brief, the octanol/water partition coefficient is obtained by the incubation of 2 ml of 25 μg ml^−1 ruthenium complex 1-octanol and 2 ml PBS samples. After shaking the solution for 6 h, the samples were stood for 2 h. The absorbance of octanol complex at 282 nm before and after oscillation was measured. The absorbance of 1-octanol before oscillation minus the absorbance of 1-octanol after oscillation is the absorbance of the complex in water. Each experiment was repeated three times. The partition coefficient is reported as the number of octanol divided by the number of water.

[2] = system: rabbit red blood cells; assay: Hemolytic activity on rabbit red blood cells; assay type: cell-based; details: 37°C, 30 min
Method: Obtain red blood cells from fresh sterile rabbit blood and rabbit blood was washed three times with PBS. Ru(II) complexes in 950 µL phosphoric acid buffer (PBS) of different concentrations and 50 μL red blood cells were added into a 1.5 ml sample tube, incubated at 37°C for 30 min. The negative control was red blood cell suspension containing only PBS, and the positive control was PBS containing 0.1% (V/V) Triton X-100. After incubating the mixture was centrifugated (2000 rpm for 2 min) and the supernatant (200 μL) was transfered to another 96 well plate. Finally, the hemolysis rate was calculated by measuring the absorbance at 540 nm.

[3] = system: Staphylococcus aureus; assay: MIC by microdilution in TSB broth; assay type: cell-based; details: 20 h
Method: Antibacterial activity was evaluated by measuring MIC (minimum inhibitory concentration) and MBC (minimum bactericidal concentration) values. The MIC value was measured by the microdilution method using TSB broth with 96 well plates ([Carlsen et al., 1981]) and the MBC value was determined by LB plates. In brief, the overnight cultured bacteria were 1: 1000 diluted with fresh medium to get a bacterial suspension. After incubation at 37°C for 20 h, the growth of bacteria is monitored by observing the turbidity of the culture. The bacterial solution was diluted as above method and the complexes were incubated with bacterial solution for 2 h. Then 100 μL bacterial solution was taken for plate coating. The Staphylococcus aureus growth inhibition trend in the presence of complexes was obtained. The MBC values of complexes were determined by LB plates after culturing in the same method for 24 h. All experiments were controlled with sterile water and repeated in parallel at least three times.

[4] = system: Staphylococcus aureus; assay: Checkerboard assay with antibiotics; assay type: cell-based; details: for MIC of antibiotics: antibiotic alone, S. aureus; for FICI: combination of the antibiotic with Ru-3, S. aureus
Method: Firstly, the MIC of all selected antibiotics was determined by the above method. Staphylococcus aureus was cultured overnight and diluted 1000 times with fresh TSB. Then 200 μL the diluted bacterial suspension, 25 μL Ru-3 of gradient concentrations and 25 μL antibiotics of gradient concentrations were mixed in 96 well plates and further cultured at 37°C for 20 h. MIC values of single drug and the best combination effect (combination of MICA and MICB) were measured. Graphpad prism software was used to draw the checkerboard map and isoline map.

[5] = system: Galleria mellonella; assay: Toxicity in insect model Galleria mellonella; assay type: in vivo; details: larvae, 120 h
Method: Based on the excellent antibacterial effect of Ru-3 in vitro, its biosafety was further evaluated. Firstly, the hemolytic activity of ruthenium complexes on rabbit red blood cells was measured to study their toxicity. […] In view of its good compatibility with mammalian red blood cells, the toxicity of Ru-3 to eukaryotes was also studied. Herein, Ru-3 was tested with Gallery melonella larvae. […] When the concentration of Ru-3 was 64 mg kg^−1, the survival rate was still 75%.
FIGURE 15 Test results of Ru compounds toxicity (A) % hemolysis at 256 μg ml^−1 of Ru compounds. (B) Kaplan-Meier survival curves. […] The larvae were incubated at 37.5°C and live/dead scores were conducted at 120 h (C) H&E staining images of the infected tissues with different treatments.

[6] = system: Staphylococcus aureus; assay: Drug resistance study, 20 generations at sub inhibitory concentration; assay type: cell-based; details: 20 passages at sublethal concentration
Method: After Staphylococcus aureus was cultured for 5 h, the bacteria were diluted 1000 times with fresh TSB and the MIC of Ru-3 was measured. The bacterial solution grown at the sub inhibitory concentration of compound Ru-3 was inoculated into fresh TSB medium for 5 h, then the MIC was measured, and the above procedure was repeated for 20 generations. Ampicillin was used as the control.

[7] = system: Staphylococcus aureus; assay: Nucleic acid leakage, 260 nm absorbing material; assay type: cell-based; details: 100 μg/ml, 2 h
Method: To verify the membrane damage, the loss of 260 nm absorbing material was carried out ([Yu et al., 2021]). Briefly, overnight cultured bacteria were diluted 1:1000 in fresh TSB and shaken at 37°C for about 5 h until the exponential stage was reached. The supernatant was removed by centrifugation, then the bacteria were resuspended to OD600 = 1 with PBS, which was further treated with Ru-3 or polymyxin B and centrifuged after 2 h to precipitate bacterial cells. Subsequently, the loss of 260 nm absorbing material, including the release of DNA and RNA in the filtrate, was measured at 260 nm.

| Molecule | MIC ([3]; S. aureus, 37°C) [µg/mL] | MIC of antibiotics [4] [µg/mL] | FICI [4] | further results |
| --- | --- | --- | --- | --- |
| [Ru(dmob)2PMA] (PF6)2 [Ru-1] | 16 | – | – | LgP [1]: 1.14; logD o/w [1]: ca. 1.1445; % Hemolysis at 256 μg/ml [2]: 8% |
| NC[C@H]1O[C@H](O[C@H]2[C@H](O)[C@@H](O[C@H]3O[C@H](CO)[C@@H](O)[C@H](N)[C@H]3O)[C@H](N)C[C@@H]2N)[C@H](O)[C@@H](O)[C@@H]1O [Kanamycin] | – | 50.00 | 0.38 | – |
| CC1(C)S[C@@H]2[C@H](NC(=O)[C@H](N)c3ccccc3)C(=O)N2[C@H]1C(=O)O [Ampicillin, reference compound] | – | 0.39 | 0.38 | Kaplan-Meier survival curve [5]: coincides with control’s curve; increase of MIC value after 20 generations [6]: more than 1024 times |
| CN[C@H](CC(C)C)C(=O)N[C@H]1C(=O)N[C@@H](CC(N)=O)C(=O)N[C@H]2C(=O)N[C@H]3C(=O)N[C@H](C(=O)N[C@H](C(=O)O)c4cc(O)cc(O)c4-c4cc3ccc4O)[C@H](O)c3ccc(c(Cl)c3)Oc3cc2cc(c3O[C@@H]2O[C@H](CO)[C@@H](O)[C@H](O)[C@H]2O[C@H]2C[C@](C)(N)[C@H](O)[C@H](C)O2)Oc2ccc(cc2Cl)[C@H]1O [Vancomycin] | – | 2 | 1.00 | MIC ([3]; Staphylococcus aureus): 2 µg/mL (≈ 1.38 µM) |
| CN(C)[C@@H]1C(O)=C(C(N)=O)C(=O)[C@@]2(O)C(O)=C3C(=O)c4c(O)cccc4[C@@](C)(O)[C@H]3C[C@@H]12 [Tetracycline] | – | 0.39 | 0.50 | – |
| CNC(C)C1CCC(N)C(OC2C(N)CC(N)C(OC3OCC(C)(O)C(NC)C3O)C2O)O1 (centres unmarked) [Gentamicin] | – | 6.25 | 0.38 | – |
| O.O.O.[Cl][Ru]([Cl])[Cl] [RuCl3∙3H2O] | >256 | – | – | – |
| Cc1ccc(N(c2ccc(C)cc2)c2ccc(-c3nc4c5cccnc5c5ncccc5c4[nH]3)cc2)cc1 [PMA] | >256 | – | – | – |
| O=C(N[C@H](CO)[C@H](O)c1ccc([N+](=O)[O-])cc1)C(Cl)Cl [Chloramphenicol] | – | 6.25 | 0.50 | – |
| Polymyxin B [reference compound] | – | – | – | Δ% Nucleic acid leakage [7]: 23% |
| [Ru(bpy)2PMA] (PF6)2 [Ru-2] | 8 | – | – | LgP [1]: 0.97; logD o/w [1]: ca. 0.9681; % Hemolysis at 256 μg/ml [2]: 16% |
